The test system of test [1] is Leishmania major. As to the kind of experiment: Antiparasitic activity was estimated by ability to inhibit the in vitro growth of Leishmania major measured by the decreased uptake of [3H]thymidine at 5 ug/mL. It counts as functional.
The test system of test [2] is Leishmania major. As to the kind of experiment: Antiparasitic activity was estimated by ability to inhibit the in vitro growth of Leishmania major measured by the decreased uptake of [3H]thymidine at 10 ug/mL. It counts as functional.
Test [3] can be described thus: Evaluated for the PHA (phytohemagglutininin A) induced proliferation of human peripheral lymphocytes at a dose of 1 ug/ml. It is filed as functional.
Test [4] concerns Leishmania major. As to the kind of experiment: Antiparasitic activity was estimated by ability to inhibit the in vitro growth of Leishmania major measured by the decreased uptake of [3H]thymidine at 1 ug/mL. It counts as functional.
Test [5] can be described thus: Evaluated for the PHA (phytohemagglutininin A) induced proliferation of human peripheral lymphocytes at a dose of 20 ug/ml. It is filed as functional.
Test [6] in a line: Evaluated for the PHA (phytohemagglutininin A) induced proliferation of human peripheral lymphocytes at a dose of 10 ug/ml. It is filed as functional.
The nature of test [7]: Evaluated for the PHA (phytohemagglutininin A) induced proliferation of human peripheral lymphocytes at a dose of 5 ug/ml. It counts as functional.
Test [8] relates to Leishmania major. Briefly: Antiparasitic activity was estimated by ability to inhibit the in vitro growth of Leishmania major measured by the decreased uptake of [3H]-thymidine at 20 ug/mL. It is filed as functional.
A short description of test [9]: Evaluated for the PHA (phytohemagglutininin A) induced proliferation of human peripheral lymphocytes at a dose of 50 ug/ml. It is filed as functional.
For test [10], the system named is Leishmania donovani. Briefly: Inhibition of [3H]thymidine uptake in amastigotes of Leishmania donovani in infected human peripheral blood monocyte derived macrophages at a dose of 5 ug/ml. It counts as functional.
Test [11] is described as follows: Evaluated for the PHA (phytohemagglutininin A) induced proliferation of human peripheral lymphocytes at a dose of 100 ug/ml. It is filed as functional.
For test [12], the system named is Leishmania donovani. Briefly: Inhibition of [3H]thymidine uptake in amastigotes of Leishmania donovani in infected human peripheral blood monocyte derived macrophages at a dose of 1 ug/ml. It is filed as functional.
Test [13] concerns Leishmania donovani. Briefly: Inhibition of [3H]thymidine uptake in amastigotes of Leishmania donovani in infected human peripheral blood monocyte derived macrophages at a dose of 0.5 ug/ml. It counts as functional.
Test [14] in a line: Evaluated for the PHA (phytohemagglutininin A) induced proliferation of human peripheral lymphocytes at a dose of 25 ug/ml. It is filed as functional.
Test [15] concerns Leishmania major. As to the kind of experiment: Antiparasitic activity was estimated by ability to inhibit the in vitro growth of Leishmania major measured by the decreased uptake of [3H]thymidine at 50 ug/mL. It is filed as functional.
Test [16] concerns Leishmania major. Briefly: Antiparasitic activity was estimated by ability to inhibit the in vitro growth of Leishmania major measured by the decreased uptake of [3H]thymidine at 100 ug/mL. It is filed as functional.
For test [17], the system named is Leishmania major. Briefly: Antiparasitic activity was estimated by ability to inhibit the in vitro growth of Leishmania major measured by the decreased uptake of [3H]thymidine at 25 ug/mL. It counts as functional.
The test system of test [18] is Leishmania donovani. Briefly: Inhibition of [3H]-thymidine uptake in amastigotes of Leishmania donovani in infected human peripheral blood monocyte derived macrophages at a dose of 10 ug/ml. It counts as functional.
In test [19] the test system is Leishmania major. Briefly: Compound was tested for its ability to inhibit the growth of Leishmania major at a dose of 1 ug/ml. It counts as functional, organism-based.
In test [20] the test system is Leishmania major. Briefly: Compound was tested for its ability to inhibit the growth of Leishmania major at a dose of 10 ug/ml. It counts as functional, organism-based.
Test [21] concerns Leishmania major. Briefly: Compound was tested for its ability to inhibit the growth of Leishmania major at a dose of 100 ug/ml. It is filed as functional, organism-based.

Results on 4 compounds are retold here after ChEMBL document CHEMBL1128838, “Synthesis of antiparasitic licorice chalcones” (1995).

A word on the inhibition: it is the change of the read-out against control, counted positive when it falls.

Consider `COc1c(/C=C/C(=O)c2ccc(O)cc2)ccc(O)c1CC=C(C)C`, for which the inhibition at 5 µg/mL is 20.7% in test [1] and 14.8% in test [7]. Further, the figures for the inhibition at 10 µg/mL in test [2] and in [6] were 51.5% and 30.4%, respectively. Besides, the figures for the inhibition at 1 µg/mL in [3] and in test [4] were 5.5% and 3.9%, respectively. In addition, the inhibition at 20 µg/mL was 73.2% in test [5] and 93.8% in test [8].

`COc1cc(O)ccc1/C=C/C(=O)c1ccc(O)cc1` [ECHINATIN]: the results for the inhibition at 5 µg/mL in [1], in test [10] and in test [7] were 16.4%, 92% and 7.8%, respectively. For the same compound, the inhibition at 50 µg/mL is 18% in test [9] and 69.3% in test [15]. Moreover, the figures for the inhibition at 100 µg/mL in test [11] and in test [16] were 26.4% and 86.8%, respectively. The compound also showed an inhibition at 1 µg/mL in test [12] of 62%. For the same compound, the inhibition at 10 µg/mL was 30% in test [2], 9.2% in test [6] and 94% in test [18]. In [13], this compound gave an inhibition at 0.5 µg/mL of 57%. The inhibition at 25 µg/mL is 10.4% in test [14] and 50.3% in test [17].

For the compound `C=CC(C)(C)c1cc(/C=C/C(=O)c2ccc(O)cc2)c(OC)cc1O` [LICOAGROCHACONE A], the values for the inhibition at 5 µg/mL in test [1] and in test [7] were 63.9% and 20.8%, respectively. Besides, the inhibition at 10 µg/mL in test [2] was 91.9%; in [6], 39.7%. For the same compound, the values for the inhibition at 1 µg/mL in [3] and in [4] were 4.7% and 3.6%, respectively. For the same compound, the inhibition at 20 µg/mL was 65.3% in test [5] and 96% in test [8].

For Pentostam, the values for the inhibition in [19], in test [20] and in test [21] were 18%, 35% and 95%, respectively.
